Where a name gives a salt, the structure may show the parent alone.
Row | melting point | SMILES
1 | 174 °C | C[C@@H]1CN(C2CCN(C(=O)c3cccc4cccnc34)CC2)CCN1[C@@H](C)c1ccc(S(=O)(=O)c2ccc3c(c2)OCO3)nc1
2 | 144 to 148 °C (dec.) | CNc1ccccc1C(=O)N1CCC(N2CCN(Cc3ccc(S(=O)(=O)c4cccc(C)c4)nc3)[C@H](C)C2)CC1 (as salt: HCl)
3 | 172 to 174 °C | C[C@@H]1CN(C2CCN(C(=O)c3cccc4c(F)cc(F)cc34)CC2)CCN1[C@@H](C)c1ccc(S(=O)(=O)c2ccc3c(c2)OCO3)nc1

The next lines start with the compound.

Row | SMILES | melting point
4 | C[C@@H]1CN(C2CCN(C(=O)c3ccccc3N)CC2)CCN1[C@@H](C)c1ccc(S(=O)(=O)c2ccc3c(c2)OCO3)nc1 | 187 to 188 °C
5 | C[C@@H]1CN(C2CCN(C(=O)c3cccc(Cl)c3N)CC2)CCN1[C@@H](C)c1ccc(S(=O)(=O)c2ccc3c(c2)OCO3)nc1 | 184 to 186 °C
6 | Cc1cccc(C)c1C(=O)N1CCC(N2CCN([C@@H](C)c3ccc(S(=O)(=O)c4ccc5c(c4)OCO5)nc3)[C@H](C)C2)CC1 | 165 °C

Source: patent publication US6451797B1, “Muscarinic antagonists” (priority 1998, dated 2002)
